# Source: publication PMC6150413 (Molecules : A Journal of Synthetic Chemistry and Natural …, 2017)
# Ends that are not written are not given here. Peptide text beside a SMILES is read from it.
# What was measured:
# [1] = system: E. coli ATCC 25922; conditions: ATCC 25922, 2 h
# Method: (§1) The antimicrobial activities of VIP and its analogues were tested against S. aureus ATCC 25923 and E. coli ATCC 25922 according to the method reported by Wani et al. with slight modification. The final peptide concentrations ranged from 0.5 to 256 μM. The tests were performed in triplicate using 4 replicates for each experiment. In addition, S. aureus ATCC 25923 and E. coli ATCC 25922 (2 × 10^6 CFU/mL) were treated with natural VIP and VIP8 at MIC for 2 h. […] The haemolytic activity of VIP and VIP derivatives were measured using porcine erythrocytes according to previous method. MTT (3-[4,5 dimethylthiozol-2-yl]-2,5-diphenyltetrazolium bromide) was used to determine the cytotoxicity of VIP and its analogue on porcine intestinal epithelial cells IPEC-J2. Stable experiments were conducted with reference to the literature with slightly changes. First, the pH of the mediums was adjusted to acidic (pH 4.0, pH 5.0, and pH 6.0) and basic (pH 8.0, pH 9.0, and pH 10.0) conditions. To investigate the effects of ion strength, the bacterial mediums were supplemented with different concentrations of NaCl (20 mM, 60 mM, and 180 mM) or MgCl2 (1 mM, 25 mM, and 50 mM). Then, bacteria were incubated with VIP, VIP analogues 2 and 8, respectively. After 3 h of incubation, bacterial viability was measured with a Synergy HT multimode reader (BioTek, Winooski, VT, USA) at 600 nm.
# (§2) Both the agar diffusion test and modified broth microdilution method were used to evaluate the antimicrobial activity of recombinant expressed VIP8. For the Oxford cup agar diffusion, the sample was added to an Oxford cup, which was then placed on a Mueller-Hinton agar plate containing 1 × 10^5 colony-forming units of S. aureus […]. Chemically-synthesized VIP8 and ampicillin were used as the positive control. The minimal inhibition concentration was determined by the method reported by Wani et al..
# [2] = system: S. aureus ATCC 25923; conditions: ATCC 25923, 2 h
# Method: as §1, §2
# [3] = system: 3T3-L1 cells
# [4] = parameters: method as in PMID 9038346; conditions: salt from 50 to 125 mmol/L; cited from earlier work
# [5] = system: S. aureus; conditions: cited from earlier work
# [6] = system: P. aeruginosa; conditions: cited from earlier work
# [7] = system: E. coli; conditions: cited from earlier work
compound,measurement,setting,value
CC[C@H](C)[C@H](NC(=O)[C@H](C)NC(=O)[C@H](C)NC(=O)[C@H](CC(C)C)NC(=O)[C@H](Cc1ccc(O)cc1)NC(=O)[C@H](CCCNC(=N)N)NC(=O)[C@H](CCCNC(=N)N)NC(=O)[C@@H](NC(=O)[C@H](C)NC(=O)[C@H](CC(C)C)NC(=O)[C@H](CCC(N)=O)NC(=O)[C@H](CCCNC(=N)N)NC(=O)[C@H](CCCNC(=N)N)NC(=O)[C@H](CC(C)C)NC(=O)[C@H](CCCNC(=N)N)NC(=O)[C@@H](NC(=O)[C@H](Cc1ccc(O)cc1)NC(=O)[C@H](CC(N)=O)NC(=O)[C@H](C)NC(=O)[C@@H](NC(=O)[C@@H](N)Cc1ccccc1)[C@@H](C)O)[C@@H](C)O)C(C)C)C(=O)N[C@@H](CC(C)C)C(=O)NCC(=O)N[C@@H](CCCNC(=N)N)C(=O)N[C@@H](CCCNC(=N)N)C(=O)O [VIP8] (H-FTANYTRLRRQLAVRRYLAAILGRR-OH),MBC (minimum bactericidal concentration),[1],4 µM
same,MIC (minimum inhibitory concentration),[1],2 µM
same,MBC (minimum bactericidal concentration),[2],4 µM
same,MIC (minimum inhibitory concentration),[2],2 µM
same,Cytotoxicity (in words),[3],no cytotoxicity
"human β-defensin 1 (DHYNCVSSGGQCLYSACPIFTKIQGTCYRGKAKCCK; ends and bridges not checked; cysteine pairing not given here; UniProt P60022 33-68, looked up) [hBD-1, human β-defensin quoted from the literature]",Activity remaining at raised salt concentration,[4],12%
"human β-defensin 4 (EFELDRICGYGTARCRKKCRSQEYRIGRCPNTYACCLRKWDESLLNRTKP; ends and bridges not checked; cysteine pairing not given here; UniProt Q8WTQ1 23-72, looked up) [hBD-4, human β-defensin quoted from the literature]",Antimicrobial activity at high concentrations of NaCl,[5],attenuated
same,Antimicrobial activity at high concentrations of NaCl,[6],attenuated
same,Antimicrobial activity at high concentrations of NaCl,[7],attenuated
